The record followed here is patent publication US5008267A, “Pyrimidinedione compounds, method of producing the same and antiarrythmic agents containing the same” (Mitsui Toatsu Chemicals, Incorporated, priority 1988, dated 1991).

Usually mortality stands for the share of the test organisms that died. A lower mortality goes with more survivors.

Where a name gives a salt, the structure may show the parent alone.

Data set [1] relates to Purkinje fiber of the right ventricular free wall (myocardial action potential). Briefly: Influence on myocardial action potential duration time (APD75), isolated right ventricular free wall, microelectrode in Purkinje fiber. The class given is cell-based, dog. To be noted: Canis lupus familiaris, 20 min, 20 minutes' incubation; for activation at 1 µg/mL: 1.0 μg/ml; for activation at 1 µg/mL / activation at 3 µg/mL / activation at 10 µg/mL: (B-A)/A×100, read-out: APD75 (%); for activation at 3 µg/mL: 3.0 μg/ml; for activation at 10 µg/mL: 10.0 μg/ml.

Data set [2] relates to ventricular muscle refractory period. Nature of the data set: Influence on ventricular muscle refractory period (ERP). Format: in vivo, mongrel dog. To be noted: Canis lupus familiaris, iv, i.v., (W-Y)/Y×100, read-out: ERP (%; extensibility of refractory period). The method in brief: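 Anesthetized (pentobarbital 30 mg/kg i.v.) mongrel dog, compound given i.v. or intraduodenally; right ventricle paced via bipolar electrodes at 400 msec, 4 msec pulses, twice threshold, sinus pacemaker abolished with alcohol. Refractory period taken as shortest inter-train interval (10 msec steps) losing response; ERP (%) = (after − before)/before × 100.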

Data set [3] can be described thus: Toxicity test, mortality rate 24 hours after administration. To be noted: mouse, in vivo. As for the experimental part: Each of the compounds prepared in the above-mentioned examples was administered into a mouse (ddY strain, male). In each case, oral administration (p.o.) and intra peritoneal administration (i.p.) were separately carried out in a dose of 300 mg/kg and 250 mg/kg, respectively.
A mortality rate (number of specimens: one group=2 to 4 mice) of the mice 24 hours after the administration was calculated, and the results are set forth in Table 3.
Following the same procedure as in Toxicity Test 1, toxicity of the respective compounds prepared in the above examples in Table 5 was tested to calculate a mortality rate of mice.
Administration was made by oral administration (p.o.) in an amount of 300 mg/kg of each compound for one mouse.
Following the same procedure as in Toxicity Test 1, toxicity of the respective compounds prepared in the above examples in Table 7 was tested to calculate a mortality rate of mice.

`CCN(CCCc1ccc([N+](=O)[O-])cc1)CCNc1cc(=O)n(C)c(=O)n1C` [Compound 4, 1,3-dimethyl-6-{2-<N-ethyl-N-[3-(4-nitrophenyl)propyl]amino>ethylamino}-2,4(1H,3H)-pyrimidinedione hydrochloride]: in data set [1], the activation at 1 µg/mL came out at 11% and the activation at 3 µg/mL worked out at 16%. Besides, in data set [2], the change in vivo at 0.1 mg/kg came to 5.6%, the change in vivo at 0.3 mg/kg is 11.1%, the change in vivo at 1 mg/kg is 16.7% and the change in vivo at 3 mg/kg was 16.7%. In data set [3] (ip, 250 mg/kg (i.p.)), this molecule had a mortality at 24 h of 0%. Further, the mortality at 24 h in data set [3] (po, 300 mg/kg (p.o.)) is 0%.

In turn, `Cn1c(NCCN(CCO)CCCc2ccc([N+](=O)[O-])cc2)cc(=O)n(C)c1=O` [Compound 8] gave an activation at 0.3 µg/mL in data set [1] (0.3 μg/ml, (B-A)/A×100) of 16%. In data set [1], the activation at 1 µg/mL turned out to be 22% and the activation at 3 µg/mL came to 38%. In data set [2], the change in vivo at 0.1 mg/kg came out at 0%, the change in vivo at 0.3 mg/kg is 10.7%, the change in vivo at 1 mg/kg is 21.4% and the change in vivo at 3 mg/kg is 14.2%. For the same molecule, in data set [3] (ip, 250 mg/kg (i.p.)), the mortality at 24 h was 0%. The molecule also yielded a mortality at 24 h in data set [3] (po, 300 mg/kg (p.o.)) of 0%.

Turning to `Cn1c(N2CCN(CCc3ccccc3[N+](=O)[O-])CC2)cc(=O)n(C)c1=O` [Compound 10, 1,3-dimethyl-6-{4-[2-(2-nitrophenyl)ethyl]piperazin-1yl}-2,4(1H,3H)-pyrimidinedione oxalate], in data set [1], the activation at 3 µg/mL is 2% and the activation at 10 µg/mL was found to be 11%. For the same molecule, in data set [2], the change in vivo at 0.1 mg/kg came out at 6.7%, the change in vivo at 0.3 mg/kg was determined as 6.7%, the change in vivo at 1 mg/kg turned out to be 13.3% and the change in vivo at 3 mg/kg stood at 20%. This molecule also gave a mortality at 24 h in data set [3] (po, 300 mg/kg (p.o.)) of 0%.

As to `Cn1c(NCCN(CCO)CCCCc2ccc([N+](=O)[O-])cc2)cc(=O)n(C)c1=O` [Compound 23], in data set [1], the activation at 1 µg/mL came to 18%, the activation at 3 µg/mL is 35% and the activation at 10 µg/mL stood at 39%. Also, the mortality at 24 h in data set [3] (po, 300 mg/kg (p.o.)) turned out to be 0%.

As for `CCN(CCNCCCCc1ccc([N+](=O)[O-])cc1)c1cc(=O)n(C)c(=O)n1C` [Compound 26, 1,3-dimethyl-6-{N-ethyl-N-<2-[4-(4-nitrophenyl)butylamino]ethyl>amino}-2,4(1H,3H)-pyrimidinedione oxalate], in data set [1], the activation at 1 µg/mL is 20%, the activation at 3 µg/mL turned out to be 30% and the activation at 10 µg/mL was found to be 35%. Besides, in data set [2], the change in vivo at 0.1 mg/kg was 6.5%, the change in vivo at 0.3 mg/kg stood at 6.5%, the change in vivo at 1 mg/kg was determined as 6.5% and the change in vivo at 3 mg/kg came out at 6.5%. The mortality at 24 h in data set [3] (ip, 250 mg/kg (i.p.)) came to 50%. In data set [3] (po, 300 mg/kg (p.o.)), this molecule returned a mortality at 24 h of 0%.

Turning to `Cn1c(N2CCN(CCCCc3ccc([N+](=O)[O-])cc3)CC2)cc(=O)n(C)c1=O` [Compound 34, 1,3-dimethyl-6-{4-[4-(4-nitrophenyl)butyl]piperazine-1-yl}-2,4(1H,3H)-pyrimidinedione hydrochloride], in data set [1], the activation at 3 µg/mL was found to be 17% and the activation at 10 µg/mL came to 25%. Moreover, in data set [2], the change in vivo at 0.1 mg/kg was 6%, the change in vivo at 0.3 mg/kg stood at 12%, the change in vivo at 1 mg/kg was 12% and the change in vivo at 3 mg/kg is 18%. The molecule further registered a mortality at 24 h in data set [3] (po, 300 mg/kg (p.o.)) of 100%.

Consider `Cn1c(N2CCN(CCCSc3ccc([N+](=O)[O-])cc3)CC2)cc(=O)n(C)c1=O` [Compound 51, 1,3-dimethyl-6-{4-[3-(4-nitrophenylthio)propyl]piperazin-1-yl}-2,4(1H,3H)-pyrimidinedione oxalate], for which the activation at 3 µg/mL in data set [1] came out at 33%. Besides, in data set [2], the change in vivo at 0.1 mg/kg was 12.6%, the change in vivo at 0.3 mg/kg was determined as 12.6% and the change in vivo at 1 mg/kg stood at 19%. In data set [3] (po, 300 mg/kg (p.o.)), this molecule had a mortality at 24 h of 0%.

Turning to `Cn1c(N2CCN(CCCCOc3ccc([N+](=O)[O-])cc3)CC2)cc(=O)n(C)c1=O` [Compound 54, 1,3-dimethyl-6-{4-[4-(4-nitrophenoxy)butyl]piperazin-1-yl}-2,4(1H,3H)-pyrimidinedione hydrochloride], in data set [1], the activation at 3 µg/mL was 15% and the activation at 10 µg/mL is 26%. This molecule registered a mortality at 24 h in data set [3] (po, 300 mg/kg (p.o.)) of 0%.

As to `Cn1c(NCCNC(=O)c2ccc([N+](=O)[O-])cc2)cc(=O)n(C)c1=O` [Compound 56, 1,3-dimethyl-6-[2-(4-nitrobenzoylamino)ethylamino]-2,4(1H,3H)-pyrimidinedione], in data set [2], the change in vivo at 0.1 mg/kg worked out at 6.7%, the change in vivo at 0.3 mg/kg is 6.7% and the change in vivo at 1 mg/kg came out at 6.7%. The molecule further showed a mortality at 24 h in data set [3] (po, 300 mg/kg (p.o.)) of 50%.

Consider `CCN(CCNc1ccc([N+](=O)[O-])cc1)CCNc1cc(=O)n(C)c(=O)n1C` [Compound 71, 1,3-dimethyl-6-{2-[N-ethyl-2-(4-nitroanilino)ethylamino]ethylamino}-2,4(1H,3H)-pyrimidinedione oxalate], for which, in data set [1], the activation at 1 µg/mL is 8%, the activation at 3 µg/mL came out at 15% and the activation at 10 µg/mL worked out at 17%. Also, in data set [2], the change in vivo at 0.1 mg/kg was 6.7%, the change in vivo at 0.3 mg/kg was 7.7%, the change in vivo at 1 mg/kg came out at 13.4% and the change in vivo at 3 mg/kg was determined as 16.6%. The molecule also yielded a mortality at 24 h in data set [3] (po, 300 mg/kg (p.o.)) of 0%.

As for `Cn1c(N2CCN(CCCOc3ccc(C(=O)c4ccccc4)cc3[N+](=O)[O-])CC2)cc(=O)n(C)c1=O` [Compound 78, 1,3-dimethyl-6-{4-[3-(4-benzoyl-2-nitrophenoxy)propyl]piperazin-1-yl}-2,4(1H,3H)-pyrimidinedione oxalate], in data set [1], the activation at 1 µg/mL was 19% and the activation at 3 µg/mL came to 42%. For the same molecule, in data set [2], the change in vivo at 0.1 mg/kg was found to be 6.7%, the change in vivo at 0.3 mg/kg turned out to be 13.3%, the change in vivo at 1 mg/kg stood at 20% and the change in vivo at 3 mg/kg was 26.7%. The molecule further came in with a mortality at 24 h in data set [3] (po, 300 mg/kg (p.o.)) of 0%.

On to `Cn1c(N2CCN(CCCOc3ccc([N+](=O)[O-])cc3C(=O)c3ccccc3)CC2)cc(=O)n(C)c1=O` [Compound 80, 1,3-dimethyl-6-{4-[3-(2-benzoyl-4-nitrophenoxy)propyl]piperazin-1-yl}-2,4(1H,3H)-pyrimidinedione oxalate], for which, in data set [1], the activation at 1 µg/mL was found to be 19%, the activation at 3 µg/mL stood at 30% and the activation at 10 µg/mL came to 34%. In data set [2], the change in vivo at 0.1 mg/kg turned out to be 2.6%, the change in vivo at 0.3 mg/kg was 9.7% and the change in vivo at 1 mg/kg was determined as 21.9%. This molecule registered a mortality at 24 h in data set [3] (po, 300 mg/kg (p.o.)) of 0%.

As to `Cn1c(N2CCN(CCc3ccc([N+](=O)[O-])cc3C(=O)c3ccccc3)CC2)cc(=O)n(C)c1=O` [Compound 133, 1,3-dimethyl-6-(4-[2-(2-benzoyl-4-nitrophenyl)ethyl]piperazin-1-yl)-2,4(1H,3H)-pyrimidinedione oxalate], in data set [2], the change in vivo at 0.1 mg/kg turned out to be 6.3%, the change in vivo at 0.3 mg/kg amounted to 6.3% and the change in vivo at 1 mg/kg is 18.8%. In addition, the mortality at 24 h in data set [3] (po, 300 mg/kg (p.o.)) was 0%.

Regarding `Cn1c(N2CCN(Cc3ccc([N+](=O)[O-])cc3C(=O)c3ccccc3)CC2)cc(=O)n(C)c1=O` [Compound 134, 1,3-dimethyl-6-{4-[(2-benzoyl-4-nitrophenyl)methyl]piperazin-1-yl}-2,4(1H,3)-pyrimidinedione oxalate], in data set [3] (po, 300 mg/kg (p.o.)), the mortality at 24 h was found to be 0%.

In data set [3] (po, 300 mg/kg (p.o.)), `Cn1c(N2CCN(CCCOc3ccc([N+](=O)[O-])cc3C(O)c3ccccc3)CC2)cc(=O)n(C)c1=O` (stereo not drawn) [Compound 148, 1,3-dimethyl-6-{4-<3-[2-(α-hydroxybenzyl)-4-nitrophenyloxy]propyl>piperazin-1-yl}-2,4(1H,3H)-pyrimidinedione oxalate] gave a mortality at 24 h of 0%.

Take `Cn1c(N2CCN(CCCOc3c(Cl)cc([N+](=O)[O-])cc3Cl)CC2)cc(=O)n(C)c1=O` [Compound 165, 1,3-dimethyl-6-{4-[3-(2,6-dichloro-4-nitrophenyloxy)propyl]piperazin-1-yl}-2,4(1H,3H)-pyrimidinedione hydrochloride]: the mortality at 24 h in data set [3] (po, 300 mg/kg (p.o.)) is 0%.

Take `CCOC(=O)CN(CCCc1ccc([N+](=O)[O-])cc1)CCNc1cc(=O)n(C)c(=O)n1C` [Compound 175, 1,3-dimethyl-6-{2-[N-ethoxycarbonylmethyl-3-(4-nitrophenyl)propylamino]ethylamino}-2,4(1H,3H)-pyrimidinedione oxalate]: in data set [1], the activation at 1 µg/mL turned out to be 8% and the activation at 3 µg/mL came out at 16%. In data set [3] (po, 300 mg/kg (p.o.)), the mortality at 24 h was 0%.
